Consider 15 compounds from US20230145835A1, “Modulators of Alpha-4-beta-7 Integrin and MAdCAM” (48HD Biopharma Inc., priority 2021, published 2023).

Numbered stars: 1 amine (or outer) side, 2 acyl side, 3 side chain; on linkers, the order of the positions; unused ones are H or OH. Bridge positions count the residues as written; N and C are the ends. Square brackets hold non-standard residues; d marks the D form. Peptide text beside a SMILES is read from it. X3 = O=C(/C=N/OCCCCCCOc1cc(C[*:2])cc(C[*:3])c1)[*:1]; X1 = O=C(C=NOCCCCCCOc1cc(C[*:2])cc(C[*:3])c1)[*:1]; X5 = O=C(CCCCCCOc1cc(C[*:2])cc(C[*:3])c1)[*:1]; Nle = CCCC[C@H](N)C(=O)O

The first assay deals with T1, rh-integrin α4β7/LPAM-1 (Homo sapiens, UniProt P13612+P26010).
T1 sequence (P13612 34-977 limits assumed): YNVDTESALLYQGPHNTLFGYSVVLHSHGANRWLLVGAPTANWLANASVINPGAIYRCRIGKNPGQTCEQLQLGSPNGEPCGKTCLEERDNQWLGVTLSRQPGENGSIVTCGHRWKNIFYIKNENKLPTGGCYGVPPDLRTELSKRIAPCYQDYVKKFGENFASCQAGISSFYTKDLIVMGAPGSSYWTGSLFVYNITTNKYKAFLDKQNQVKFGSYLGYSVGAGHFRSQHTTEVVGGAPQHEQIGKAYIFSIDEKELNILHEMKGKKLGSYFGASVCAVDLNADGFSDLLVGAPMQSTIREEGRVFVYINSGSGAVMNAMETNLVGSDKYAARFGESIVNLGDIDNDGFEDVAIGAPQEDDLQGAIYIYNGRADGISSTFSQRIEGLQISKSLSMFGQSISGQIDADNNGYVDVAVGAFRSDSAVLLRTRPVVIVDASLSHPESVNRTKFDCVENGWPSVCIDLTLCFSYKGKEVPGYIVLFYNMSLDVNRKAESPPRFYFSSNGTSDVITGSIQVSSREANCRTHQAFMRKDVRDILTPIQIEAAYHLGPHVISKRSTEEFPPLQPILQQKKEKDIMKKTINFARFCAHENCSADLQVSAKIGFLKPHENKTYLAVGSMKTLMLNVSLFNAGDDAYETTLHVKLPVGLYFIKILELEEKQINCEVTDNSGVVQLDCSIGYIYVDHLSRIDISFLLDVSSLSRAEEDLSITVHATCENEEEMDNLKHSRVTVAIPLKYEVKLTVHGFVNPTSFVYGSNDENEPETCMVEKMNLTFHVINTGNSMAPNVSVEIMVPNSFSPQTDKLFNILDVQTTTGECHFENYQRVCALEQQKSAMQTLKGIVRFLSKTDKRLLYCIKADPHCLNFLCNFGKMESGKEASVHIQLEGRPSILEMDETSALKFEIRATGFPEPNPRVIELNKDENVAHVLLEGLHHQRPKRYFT
T1 sequence (P26010 20-723 limits assumed): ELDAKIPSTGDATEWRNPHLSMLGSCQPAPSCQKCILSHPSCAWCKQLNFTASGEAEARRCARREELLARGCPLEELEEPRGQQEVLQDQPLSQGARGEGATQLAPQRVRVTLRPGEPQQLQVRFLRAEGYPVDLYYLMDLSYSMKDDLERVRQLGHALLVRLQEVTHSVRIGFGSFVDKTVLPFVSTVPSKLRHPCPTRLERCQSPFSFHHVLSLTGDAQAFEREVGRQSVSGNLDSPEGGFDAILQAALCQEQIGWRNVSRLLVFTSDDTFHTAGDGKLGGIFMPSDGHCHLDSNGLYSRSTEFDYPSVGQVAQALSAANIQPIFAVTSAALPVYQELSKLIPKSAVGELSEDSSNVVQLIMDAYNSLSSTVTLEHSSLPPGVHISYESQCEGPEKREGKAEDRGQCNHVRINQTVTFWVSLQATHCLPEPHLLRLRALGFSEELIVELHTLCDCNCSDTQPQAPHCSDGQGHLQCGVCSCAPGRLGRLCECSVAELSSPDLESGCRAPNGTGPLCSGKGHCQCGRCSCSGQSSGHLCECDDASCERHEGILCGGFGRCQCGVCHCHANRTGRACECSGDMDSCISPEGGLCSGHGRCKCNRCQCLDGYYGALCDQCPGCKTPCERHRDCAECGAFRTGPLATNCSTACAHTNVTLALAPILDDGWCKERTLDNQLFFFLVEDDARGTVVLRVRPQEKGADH
Kind of assay: α4β7-MadCAM Competition ELISA (Example 4). In kind it is binding. To be noted: IC50, competition ELISA, 4 μg/mL α4β7 coated, MAdCAM and peptide mixture, 28° C. As for the experimental part:
After washing with wash buffer, 200 μL assay buffer was added to each well and incubated for one hour at 28° C. After another wash with wash buffer, 100 μL of a MAdCAM and peptide mixture in assay buffer was added to each well and incubated for one hour at 28° C., followed by washing with wash buffer.
As to `C[C@@H](O)[C@@H]1NC(=O)[C@H](CCCCN)NC(=O)[C@H](CO)NC(=O)[C@H](CCC(N)=O)NC(=O)[C@H](Cc2c[nH]c3ccccc23)NC(=O)[C@@H]2CCCN2C(=O)[C@@H]2CSCc3cc(cc(c3)OCCCCCCON=CC(=O)N[C@@H](CC(=O)O)C(=O)N2)CSC[C@@H](C(=O)O)NC1=O` [SEQ ID NO: 95] (DCPWQSKTC-OH; linker N-2-9 via X1), the IC50 was determined as 17.7 µM.

Staying with this assay, now noted: Table 3 Representative compounds; inhibition of MAdCAM binding to coated α4β7; read-out: IC50.
Turning to `CC[C@H](C)[C@@H]1NC(=O)[C@H](CC(=O)O)NC(=O)[C@H](CCSC)NC(=O)[C@@H]2CCCN2C(=O)[C@@H]2CSCc3cc(cc(c3)OCCCCCCO/N=C/C(=O)N[C@@H](C)C(=O)N2)CSC[C@@H](C(N)=O)NC(=O)[C@H]([C@@H](C)O)NC(=O)[C@@H]2CCCN2C1=O` [compound 37, TSL6- SACPMDIPTC] (ACPMDIPTC-NH2; linker N-2-9 via X3), the IC50 stood at 0.943 µM.
Take `CCCC[C@@H]1NC(=O)[C@@H]2CCCN2C(=O)[C@@H]2CSCc3cc(cc(c3)OCCCCCCC(=O)NCC(=O)N[C@@H](C)C(=O)N2)CSC[C@@H](C(N)=O)NC(=O)[C@H](CCC(=O)O)NC(=O)[C@H](CCC(N)=O)NC(=O)[C@H](Cc2c[nH]c3ccccc23)NC(=O)[C@H](C(C)C)NC(=O)[C@H](CC(=O)O)NC1=O` (stereo in doubt) [compound 33, TSLC7- GACP{Nle} DVWQEC]: the IC50 came to 0.74 µM.
Still for that read-out and setting: with `CCCC[C@@H]1NC(=O)[C@@H]2CCCN2C(=O)[C@@H]2CSCc3cc(cc(c3)OCCCCCCC(=O)NCC(=O)N[C@@H](CCCNC(=N)N)C(=O)N2)CSC[C@@H](C(N)=O)NC(=O)[C@H](CCC(=O)O)NC(=O)[C@H](CCC(N)=O)NC(=O)[C@H](Cc2c[nH]c3ccccc23)NC(=O)[C@H]([C@@H](C)CC)NC(=O)[C@H](CC(=O)O)NC1=O` [compound 4] (GRCP[Nle]DIWQEC-NH2; linker N-3-11 via X5) the figure was 0.075 µM; with `CSCC[C@@H]1NC(=O)[C@H](CCC(N)=O)NC(=O)[C@@H]2CSCc3cc(cc(c3)OCCCCCCO/N=C/C(=O)N[C@@H](Cc3ccccc3)C(=O)N2)CSC[C@@H](C(N)=O)NC(=O)[C@H](C)NC(=O)[C@H](CCCCN)NC(=O)[C@H](CCC(=O)O)NC(=O)[C@H](Cc2ccccc2)NC1=O` [compound 102, TSL6- SFCQMFEKAC] (FCQMFEKAC-NH2; linker N-2-9 via X3), 178 µM; with `CCCC[C@@H]1NC(=O)[C@@H]2CCCN2C(=O)[C@@H]2CSCc3cc(cc(c3)OCCCCCCO/N=C/C(=O)N[C@@H](CCCNC(=N)N)C(=O)N2)CSC[C@@H](C(N)=O)NC(=O)[C@H](CCC(=O)O)NC(=O)CNC(=O)[C@H](C)NC(=O)[C@H](C(C)C)NC(=O)[C@H](CC(=O)O)NC1=O` [compound 15] (RCP[Nle]DVAGEC-NH2; linker N-2-10 via X3), 0.261 µM.
`CC[C@H](C)[C@@H]1NC(=O)[C@H](CC(=O)O)NC(=O)[C@H](CCSC)NC(=O)[C@@H]2CCCN2C(=O)C(NC(=O)[C@H](CCCNC(=N)N)NC(=O)[C@H](CO)NC(C)=O)CSSC[C@@H](C(=O)N[C@@H](CCCCNC(=O)COCC(=O)NCCCC[C@H](NC(=O)[C@@H]2CSSC[C@H](NC(=O)[C@H](CCCNC(=N)N)NC(=O)[C@H](CO)NC(C)=O)C(=O)N3CCC[C@H]3C(=O)N[C@@H](CCSC)C(=O)N[C@@H](CC(=O)O)C(=O)N[C@@H]([C@@H](C)CC)C(=O)N[C@@H](C)C(=O)NCC(=O)N[C@@H](CCC(=O)O)C(=O)N2)C(N)=O)C(N)=O)NC(=O)[C@H](CCC(=O)O)NC(=O)CNC(=O)[C@H](C)NC1=O` (stereo in doubt) [compound 32]: the IC50 turned out to be 0.729 µM.
Turning to `CC[C@H](C)[C@@H]1NC(=O)/C=N/OCCCCCCOc2cc3cc(c2)CSC[C@H](NC1=O)C(=O)N[C@@H](Cc1ccc(O)cc1)C(=O)N1CCC[C@H]1C(=O)N[C@@H](CC(=O)O)C(=O)N[C@@H]([C@@H](C)O)C(=O)N[C@@H](Cc1ccc(O)cc1)C(=O)N[C@@H](Cc1cnc[nH]1)C(=O)N[C@H](C(N)=O)CSC3` [compound 91, TSL6- SICYPDTYHC] (ICYPDTYHC-NH2; linker N-2-9 via X3), the IC50 was determined as 93.2 µM.
Turning to `CSCC[C@@H]1NC(=O)[C@@H]2CSCc3cc(cc(c3)OCCCCCCO/N=C/C(=O)NCC(=O)N2)CSC[C@@H](C(N)=O)NC(=O)[C@H](Cc2ccccc2)NC(=O)[C@H](C)NC(=O)[C@H](Cc2ccccc2)NC(=O)[C@H](CC(=O)O)NC(=O)[C@H](CC(=O)O)NC1=O` [compound 82, TSL6- SGCMDDFAFC] (GCMDDFAFC-NH2; linker N-2-9 via X3), the IC50 is 59.1 µM.
On the same count and under the same terms, with `CCCC[C@@H]1NC(=O)[C@@H]2CCCN2C(=O)[C@@H]2CSCc3cc(cc(c3)OCCCCCCO/N=C/C(=O)N[C@@H](CCCNC(=N)N)C(=O)N2)CSC[C@@H](C(N)=O)NC(=O)[C@H](CCC(=O)O)NC(=O)[C@H](Cc2ccc(O)cc2)NC(=O)[C@H](Cc2c[nH]c3ccccc23)NC(=O)[C@H](C(C)C)NC(=O)[C@H](CC(=O)O)NC1=O` [compound 6] (RCP[Nle]DVWYEC-NH2; linker N-2-10 via X3) the figure was 0.13 µM; with `C[C@@H]1NC(=O)[C@@H]2CCCN2C(=O)[C@@H]2CSCc3cc(cc(c3)OCCCCCCO/N=C/C(=O)N[C@@H](CCCCN)C(=O)N2)CSC[C@@H](C(N)=O)NC(=O)[C@H](CCC(=O)O)NC(=O)[C@H](Cc2ccc(O)cc2)NC(=O)[C@@H]2CCCN2C(=O)[C@H]([C@@H](C)O)NC(=O)[C@H](CC(=O)O)NC1=O` [compound 109, TSL- 6SKCPADTPYEC] (KCPADTPYEC-NH2; linker N-2-10 via X3), greater than 500 µM; with `C[C@@H](O)[C@@H]1NC(=O)[C@H](CC(=O)O)NC(=O)[C@@H]2CCCN2C(=O)[C@H](Cc2ccc(O)cc2)NC(=O)[C@@H]2CSCc3cc(cc(c3)OCCCCCCO/N=C/C(=O)N[C@@H](CC(=O)O)C(=O)N2)CSC[C@@H](C(N)=O)NC(=O)[C@H](Cc2cnc[nH]2)NC(=O)[C@H](Cc2ccccc2)NC1=O` [compound 79, TSL6- SDCYPDTFHC] (DCYPDTFHC-NH2; linker N-2-9 via X3), 53.5 µM.

Staying with this assay, now noted: competition ELISA, 4 μg/mL α4β7 coated, MAdCAM and peptide mixture, 28° C.; read-out: IC50.
For the compound `CC(C)C[C@@H]1NC(=O)[C@@H]2CCCN2C(=O)[C@@H]2CSCc3cc(cc(c3)OCCCCCCON=CC(=O)N[C@@H](CCCCN)C(=O)N2)CSC[C@@H](C(=O)O)NC(=O)[C@H](CCC(=O)O)NC(=O)[C@H](Cc2ccc(O)cc2)NC(=O)[C@@H]2CCCN2C(=O)[C@H]([C@@H](C)O)NC(=O)[C@H](C)NC1=O` [SEQ ID NO: 72] (KCPLATPYEC-OH; linker N-2-10 via X1), the IC50 is greater than 500 µM.
In the case of `CC[C@H](C)[C@@H]1NC(=O)C=NOCCCCCCOc2cc3cc(c2)CSC[C@H](NC1=O)C(=O)N[C@@H](CCCNC(=N)N)C(=O)N[C@@H]([C@@H](C)O)C(=O)N[C@@H](CC(=O)O)C(=O)N[C@@H](C(C)C)C(=O)N1CCC[C@H]1C(=O)N[C@@H]([C@@H](C)CC)C(=O)N[C@@H](CC(=O)O)C(=O)N[C@H](C(=O)O)CSC3` [SEQ ID NO: 98] (ICRTDVPIDC-OH; linker N-2-10 via X1), the IC50 was found to be 14.4 µM.
For the compound `CCCC[C@@H]1NC(=O)[C@@H]2CCCN2C(=O)[C@@H]2CSCc3cc(cc(c3)OCCCCCCON=CC(=O)N[C@@H](CCCNC(=N)N)C(=O)N2)CSC[C@@H](C(=O)O)NC(=O)[C@H](CCC(=O)O)NC(=O)CNC(=O)[C@H](C)NC(=O)[C@H](C(C)C)NC(=O)[C@H](CC(=O)O)NC1=O` [SEQ ID NO: 138] (RCP[Nle]DVAGEC-OH; linker N-2-10 via X1), the IC50 is 0.261 µM.
